Experimental data as given in paper PMC9699427 (Viruses, 2022).

What was measured:
[1] = Pharmacokinetics after iv and oral dosing; format: in vivo, BALB/c mice
[2] = Cytotoxicity, MTT assay, PBMCs; format: cell-based; settings: human, PBMC, seven days, read-out: CC50 (Mean ± SD)
CYP2C9 = CYP2C9 (Homo sapiens, UniProt P11712); assay: Cytochrome P450 inhibition, human liver microsomes, diclofenac
[3] = tested on: HIV-1IIIB chronically infected H9 cells; assay: HIV-1 replication in chronically infected H9/HIV-1IIIB cells, p24; format: cell-based
HIV-1IIIB = assay: Anti-HIV-1 activity, syncytia (CPE) count in C8166 cells; format: cell-based; settings: Human immunodeficiency virus 1
[4] = Acute toxicity, single intragastric dose; format: in vivo; settings: male and female BALB/C mice
[5] = Cytotoxicity, MTT assay, MT-4 cells; format: cell-based; settings: human, three days, read-out: CC50 (Mean ± SD)
[6] = Cytotoxicity, MTT assay, H9/HIV-1IIIB cells; format: cell-based; settings: human, three days, read-out: CC50 (Mean ± SD)
HIV-1Yu-2(G140S/Q148H) = assay: microbe, parasite or virus in culture; format: cell-based; settings: Human immunodeficiency virus 1, TZM-bl
[7] = tested on: C8166 cells infected with HIV-1IIIB or TZM-bl cells infected with HIV-1YU-2; assay: Combination antiviral activity assay (CompuSyn CI and DRI); format: cell-based
[8] = po 60 mg/kg, female BALB/c mice
[9] = po 120 mg/kg, female BALB/c mice
[10] = single drug in combination K-5a2+3TC
[11] = single drug in combination K-5a2+AZT
[12] = single drug in combination K-5a2+DC521022
[13] = single drug in combination K-5a2+DRV
[14] = single drug in combination K-5a2+DTG
[15] = single drug in combination K-5a2+ETR
[16] = single drug in combination K-5a2+FTC
[17] = single drug in combination K-5a2+MVC
[18] = single drug in combination K-5a2+RAL
[19] = single drug in combination K-5a2+T-20
[20] = single drug in combination K-5a2+TDF

Sequence of CYP2C9 (P11712 whole entry): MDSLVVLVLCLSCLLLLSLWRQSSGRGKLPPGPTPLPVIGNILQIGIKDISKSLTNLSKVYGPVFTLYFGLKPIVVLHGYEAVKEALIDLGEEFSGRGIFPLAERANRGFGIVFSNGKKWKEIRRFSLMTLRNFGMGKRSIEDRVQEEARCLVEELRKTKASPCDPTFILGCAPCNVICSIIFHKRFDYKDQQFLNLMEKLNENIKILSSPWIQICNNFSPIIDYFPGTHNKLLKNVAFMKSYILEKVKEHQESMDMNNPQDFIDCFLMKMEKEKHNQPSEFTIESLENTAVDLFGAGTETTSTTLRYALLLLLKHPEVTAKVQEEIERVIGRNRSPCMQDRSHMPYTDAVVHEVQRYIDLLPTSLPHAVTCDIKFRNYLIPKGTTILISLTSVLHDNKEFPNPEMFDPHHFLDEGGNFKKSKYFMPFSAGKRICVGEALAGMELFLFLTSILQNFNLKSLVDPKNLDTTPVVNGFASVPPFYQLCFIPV

## Cc1cc(C#N)cc(C)c1Oc1nc(NC2CCN(Cc3ccc(S(N)(=O)=O)cc3)CC2)nc2ccsc12 [K-5a2]
[1]; po 30 mg/kg, male BALB/c mice
  CL: 1016 mL/min/kg
  Vd: 91.4 L/kg
[1]; [8]
  CL: 697.5 mL/min/kg
  Vd: 71.9 L/kg
[1]; po 60 mg/kg, male BALB/c mice
  CL: 1021 mL/min/kg
  Vd: 125.1 L/kg
[1]; [9]
  CL: 557.2 mL/min/kg
  Vd: 39.7 L/kg
[1]; po 120 mg/kg, male BALB/c mice
  CL: 791.3 mL/min/kg
  Vd: 120.2 L/kg
[2]
  CC50 at 7 days: 39.7 ± 6.29 µM
CYP2C9
  IC50: > 50 µM
[3]; Human immunodeficiency virus 1, HIV-1IIIB, H9/HIV-1IIIB chronically infected, p24
  EC50: > 50 µM
[3]; at a concentration of 50.00 µM
  Inhibition of HIV-1 replication in HIV-1IIIB chronically infected H9 cells: could not inhibit the replication
HIV-1IIIB
  EC50: 0.00188 ± 0.00087 µM
[4]; both, mouse, in vivo, po, 5000 mg/kg, single gavage dose, read-out: Maximum tolerated dose
  MTD: > 5000 mg/kg
[4]; single gavage dose of 5000 mg/kg
  Clinical symptoms and body weight: no obvious clinical symptoms and no obvious abnormalities in body weight
[5]
  CC50 at 3 days: 26.6 ± 2.03 µM
[6]
  CC50 at 3 days: 28.1 ± 5.03 µM
HIV-1Yu-2(G140S/Q148H)
  EC50: 0.00026 ± 0.00028 µM
[7]; [10]
  DRI Value ED75: 2.79 ± 0.14
  DRI Value ED90: 2.81 ± 0.58
  DRI Value ED95: 2.85 ± 0.93
[7]; [11]
  DRI Value ED75: 13.26 ± 9.86
  DRI Value ED90: 7.60 ± 3.58
  DRI Value ED95: 5.48 ± 2.08
[7]; [12]
  DRI Value ED75: 1.61 ± 0.50
  DRI Value ED90: 1.71 ± 0.48
  DRI Value ED95: 1.78 ± 0.47
[7]; [13]
  DRI Value ED75: 2.26 ± 0.28
  DRI Value ED90: 2.57 ± 0.19
  DRI Value ED95: 2.85 ± 0.57
[7]; [14]
  DRI Value ED75: 1.69 ± 0.37
  DRI Value ED90: 1.94 ± 0.10
  DRI Value ED95: 2.19 ± 0.50
[7]; [15]
  DRI Value ED75: 1.47 ± 0.24
  DRI Value ED90: 1.40 ± 0.12
  DRI Value ED95: 1.35 ± 0.07
[7]; [16]
  DRI Value ED75: 5.00 ± 0.71
  DRI Value ED90: 3.58 ± 0.51
  DRI Value ED95: 2.85 ± 0.41
[7]; [17]
  DRI Value ED75: 1.30 ± 0.17
  DRI Value ED90: 1.28 ± 0.15
  DRI Value ED95: 1.27 ± 0.15
[7]; [18]
  DRI Value ED75: 2.45 ± 0.95
  DRI Value ED90: 2.47 ± 0.85
  DRI Value ED95: 2.49 ± 0.79
[7]; [19]
  DRI Value ED75: 5.13 ± 0.38
  DRI Value ED90: 4.68 ± 0.43
  DRI Value ED95: 4.43 ± 0.75
[7]; [20]
  DRI Value ED75: 2.30 ± 0.73
  DRI Value ED90: 2.15 ± 0.47
  DRI Value ED95: 2.06 ± 0.33
